# BindingDB's records for doi:10.1021/jm980537b (Agouron Pharmaceuticals, 1999)
# Legend:
# [1] = Increased percentage of formazan production in drug treated virus infected cells to equal 50% of control drug free uninfected cells on serotype 14
# [2] = The EC50 was calculated as the concentration of drug that increased the percentage of formazan production in drug treated, virus infected cells to 50% of that produced by drug free uninfected cells on serotype 1A.
# [3] = The EC50 was calculated as the concentration of drug that increased the percentage of formazan production in drug treated,virus infected cells to 50% of that produced by drug free uninfected cells on serotype 10.
# [4] = The EC50 was calculated as the concentration of drug that increased the percentage of formazan production in drug treated, virus infected cells to 50% of that produced by drug free uninfected cells on serotype 2.
# [5] = The EC50 was calculated as the concentration of drug that increased the percentage of formazan production in drug treated, virus infected cells to 50% of that produced by drug free uninfected cells on serotype 1A.; remark: listed apart in the source
SMILES,EC50 [1] [nM],EC50 [2] [nM],EC50 [3] [nM],EC50 [4] [nM],EC50 [5] [nM]
"CCOC(=O)/C=C/[C@H](CCC(N)=O)NC(=O)[C@@H](CC(=O)[C@H](CC(C)C)NC(=O)OCc1ccccc1)Cc1ccccc1 [(E)-(S)-4-((2R,5S)-2-Benzyl-5-benzyloxycarbonylamino-7-methyl-4-oxo-octanoylamino)-6-carbamoyl-hex-2-enoic acid ethyl ester]",360,–,–,–,–
"CCOC(=O)/C=C/[C@H](CCC(N)=O)NC(=O)[C@@H](CC(=O)[C@@H](NC(=O)SCc1ccccc1)C(C)C)Cc1ccccc1 [(E)-(S)-4-((2R,5S)-2-Benzyl-5-benzylsulfanylcarbonylamino-6-methyl-4-oxo-heptanoylamino)-6-carbamoyl-hex-2-enoic acid ethyl ester]",190,–,–,–,–
"CCOC(=O)/C=C/[C@H](CCC(N)=O)NC(=O)[C@@H](CC(=O)[C@H](CC(C)C)NC(=O)SCc1ccccc1)Cc1ccccc1 [(E)-(S)-4-((2R,5S)-2-Benzyl-5-benzylsulfanylcarbonylamino-7-methyl-4-oxo-octanoylamino)-6-carbamoyl-hex-2-enoic acid ethyl ester]",680,–,–,–,–
"CCOC(=O)/C=C/[C@H](CCC(N)=O)NC(=O)[C@@H](CC(=O)[C@H](CC(C)C)NC(=O)SC1CCCC1)Cc1ccccc1 [(E)-(S)-4-((2R,5S)-2-Benzyl-5-cyclopentylsulfanylcarbonylamino-7-methyl-4-oxo-octanoylamino)-6-carbamoyl-hex-2-enoic acid ethyl ester]",190,–,–,–,–
"CCOC(=O)/C=C/[C@H](CCC(N)=O)NC(=O)[C@@H](CC(=O)[C@H](CC(C)C)NC(=O)SC1CCCC1)Cc1ccc(F)cc1 [(E)-(S)-6-Carbamoyl-4-[(2R,5S)-5-cyclopentylsulfanylcarbonylamino-2-(4-fluoro-benzyl)-7-methyl-4-oxo-octanoylamino]-hex-2-enoic acid ethyl ester]",280,600,1600,710,–
"CCOC(=O)/C=C/[C@H](CCC(N)=O)NC(=O)[C@@H](CC(=O)[C@H](CC(C)C)NC(=O)SC1CCCC1)Cc1ccc(C)cc1 [(E)-(S)-6-Carbamoyl-4-[(2R,5S)-5-cyclopentylsulfanylcarbonylamino-7-methyl-2-(4-methyl-benzyl)-4-oxo-octanoylamino]-hex-2-enoic acid ethyl ester]",–,–,1400,1000,560

# Other lines, results leading:
EC50 [1] [nM],EC50 [2] [nM],EC50 [3] [nM],EC50 [4] [nM],EC50 [5] [nM],SMILES
50,430,–,–,–,"CCOC(=O)/C=C/[C@H](CCC(N)=O)NC(=O)[C@@H](CC(=O)[C@@H](NC(=O)SC1CCCC1)C(C)(C)C)Cc1ccccc1 [(E)-(S)-4-((2R,5S)-2-Benzyl-5-cyclopentylsulfanylcarbonylamino-6,6-dimethyl-4-oxo-heptanoylamino)-6-carbamoyl-hex-2-enoic acid ethyl ester]"
20,–,35,100,–,"CCOC(=O)/C=C/[C@H](CCC(N)=O)NC(=O)[C@@H](CC(=O)[C@@H](NC(=O)SC1CCCC1)C(C)C)Cc1ccccc1 [(E)-(S)-4-((2R,5S)-2-Benzyl-5-cyclopentylsulfanylcarbonylamino-6-methyl-4-oxo-heptanoylamino)-6-carbamoyl-hex-2-enoic acid ethyl ester]"
20,170,–,–,–,"CCOC(=O)/C=C/[C@H](CCC(N)=O)NC(=O)[C@@H](CC(=O)[C@@H](NC(=O)SC1CCCC1)C(C)C)Cc1ccc(F)cc1 [(E)-(S)-6-Carbamoyl-4-[(2R,5S)-5-cyclopentylsulfanylcarbonylamino-2-(4-fluoro-benzyl)-6-methyl-4-oxo-heptanoylamino]-hex-2-enoic acid ethyl ester]"
6,160,60,130,–,"CCOC(=O)/C=C/[C@H](CCC(N)=O)NC(=O)[C@@H](CC(=O)[C@@H](NC(=O)SC1CCCC1)C(C)C)Cc1ccc(C)cc1 [(E)-(S)-6-Carbamoyl-4-[(2R,5S)-5-cyclopentylsulfanylcarbonylamino-6-methyl-2-(4-methyl-benzyl)-4-oxo-heptanoylamino]-hex-2-enoic acid ethyl ester]"
50,–,160,–,–,"CCOC(=O)/C=C/[C@H](CCC(N)=O)NC(=O)[C@@H](CC(=O)[C@@H](NC(=O)SC1CCCC1)C(C)C)Cc1ccc(C(F)(F)F)cc1 [(E)-(S)-6-Carbamoyl-4-[(2R,5S)-5-cyclopentylsulfanylcarbonylamino-6-methyl-4-oxo-2-(4-trifluoromethyl-benzyl)-heptanoylamino]-hex-2-enoic acid ethyl ester]"
